IC50 data for 32 compounds are collected here from patent publication US7491794B2, “Macrocyclic compounds as inhibitors of viral replication” (Intermune, Inc., priority 2003, dated 2009).

The target of this test is T1, NS3-NS4 protease (Hepatitis C virus genotype 1a, UniProt P27958).
T1 construct: Recombinant E. coli or Baculovirus full-length NS3 was diluted to 3.33 μM with assay buffer; made in house; host or cells: E. coli or baculovirus (BV) system
T1 sequence (P27958 1027-1657): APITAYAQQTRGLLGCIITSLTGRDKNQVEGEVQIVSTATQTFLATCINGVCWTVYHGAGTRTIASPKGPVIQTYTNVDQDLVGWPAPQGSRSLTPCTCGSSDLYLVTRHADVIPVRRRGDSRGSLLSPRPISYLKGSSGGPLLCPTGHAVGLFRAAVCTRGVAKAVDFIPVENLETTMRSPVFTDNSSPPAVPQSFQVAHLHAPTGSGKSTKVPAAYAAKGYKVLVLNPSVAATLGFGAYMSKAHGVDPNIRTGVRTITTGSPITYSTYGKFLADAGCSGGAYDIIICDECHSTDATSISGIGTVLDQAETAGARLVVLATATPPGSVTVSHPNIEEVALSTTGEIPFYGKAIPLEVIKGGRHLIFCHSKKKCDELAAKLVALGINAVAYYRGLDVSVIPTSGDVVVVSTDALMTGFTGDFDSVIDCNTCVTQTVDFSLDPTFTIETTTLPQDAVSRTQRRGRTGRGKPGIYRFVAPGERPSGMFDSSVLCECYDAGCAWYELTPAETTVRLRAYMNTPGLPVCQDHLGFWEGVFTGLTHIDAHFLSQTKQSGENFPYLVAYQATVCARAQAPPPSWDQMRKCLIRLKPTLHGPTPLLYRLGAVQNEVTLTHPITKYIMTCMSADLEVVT
As to the kind of experiment: NS3-NS4 protease assay / NS3 inhibition assay, Section D. Type of test: biochemical. The method, then: NS3-NS4 Protease Assay NS3 complex formation with NS4A-2.
Recombinant E. coli or Baculovirus full-length NS3 was diluted to 3.33 μM with assay buffer and transferred material to an eppendorf tube and place in water bath in 4° C. refrigerator. The appropriate amount of NS4A-2 to 8.3 mM in assay buffer was added to equal the volume of NS3 in step 2.1.1 (conversion factor −3.8 mg/272 μL assay buffer). The material was transferred to an eppendorf tube and place in water bath in 4° C. refrigerator.
After equilibration to 4° C., equal volumes of NS3 and NS4A-2 solutions were combined in an eppendorf tube, mix gently with a manual pipettor, and incubate mixture for 15 minutes in the 4° C. water bath. Final concentrations in the mixture are 1.67 μM NS3, 4.15 mM NS4A-2 (2485-fold molar excess NS4A-2).
After 15 minutes at 4° C., the NS3/NS4A-2 eppendorf tube was removed and placed in a room temperature water bath for 10 minutes. NS3/NS4A-2 was alliquoted at appropriate volumes and store at −80° C. (E. coli NS3 run at 2 nM in assay, aliquot at 25 μL. BV NS3 run at 3 nM in assay, aliquot at 30 μL).
Sample compounds were dissolved to 10 mM in DMSO then diluted to 2.5 mM (1:4) in DMSO.
The E. coli. NS3/NS4A-2 was diluted to 4 nM NS3 (1:417.5 of 1.67 μM stock−18 μL 1.67 μM stock+7497 μL assay buffer).
The BV NS3/NS4A-2 was diluted to 6 nM NS3 (1:278.3 of 1.67 μM stock−24 μL 1.67 μM stock+6655 μL assay buffer).
Using the manual multichannel pipettor, careful not to introduce bubbles into the plate, add 50 μL assay buffer to wells A01-H01 of a black Costar 96-well polypropylene storage plate.
Using the manual multichannel pipettor, careful not to introduce bubbles into the plate, add 50 μL of diluted NS3/NS4A-2 from step 2.2.6 to wells A02-H12 of plate in step 2.2.7.
Using the manual multichannel pipettor, careful not to introduce bubbles into the plate, transfer 25 μL of the wells in drug dilution plate in step 2.2.5 to corresponding wells in assay plate in step 2.2.8. Change tips on multichannel pipettor for each row of compounds transferred.
Using the manual multichannel pipettor, careful not to introduce bubbles into the plate, mix the wells from the assay plate in step 2.2.9 by aspirating and dispensing 35 μL of the 75 μL in each well five times. Change tips on multichannel pipettor for each row of wells mixed.
Cover plate with a polystyrene plate lid and pre-incubate the plate from step 2.2.10 containing NS3 protease and sample compounds 10 minutes at room temperature.
While plate from step 2.2.11 is pre-incubating, dilute RETS1 substrate in a 15 mL polypropylene centrifuge tube.
Dilute RETS1 substrate to 8 μM (1:80.75 of 646 μM stock−65 μL 646 μM stock+5184 μL assay buffer).
After the plate in step is done pre-incubating, and using the manual multichannel, add 25 μL of substrate to all wells on the plate. Quickly mix the plate as in step 2.2.10, mixing 65 μL of the 100 μL in the wells.
Read the plate in kinetic mode on the Molecular Devices SpectraMax Gemini XS plate reader. Reader settings: Read time: 30 minutes, Interval: 36 seconds, Reads: 51, Excitation k: 335 nm, Emission k: 495 nm, cutoff: 475 nm, Automix: off, Calibrate: once, PMT: high, Reads/well: 6, Vmax pts: 21 or 28/51 depending on length of linearity of reaction.
IC50s are determined using a four parameter curve fit equation, and converted to Ki's using the following Km's:
where Ki=IC50/(1+[S]/Km))
For orientation: IC50 means the concentration that inhibits the measured activity by half. In the case of `CC(C)(C)OC(=O)N[C@H]1CCCCC/C=C\[C@@H]2C[C@@]2(C(=O)O)NC(=O)[C@@H]2C[C@@H](NC(=O)c3ccc4cccnc4c3)CN2C1=O` [Example 67], the IC50 is below 10000 nM.

`CC(C)(C)CC(=O)N[C@H]1CCCCC/C=C\[C@@H]2C[C@@]2(C(=O)NS(=O)(=O)C2CC2)NC(=O)[C@@H]2C[C@@H](NC(=O)c3sc4ccccc4c3Cl)CN2C1=O` [Example 51] showed an IC50 below 100 nM.

Take `COc1ccc2[nH]c(C(=O)N[C@@H]3C[C@H]4C(=O)N[C@]5(C(=O)NS(=O)(=O)C6CC6)C[C@H]5/C=C\CCCCC[C@H](NC(=O)OC(C)(C)C)C(=O)N4C3)cc2c1` [Example 33]: the IC50 was below 100 nM.

Regarding `CC(C)(C)OC(=O)N[C@H]1CCCCC/C=C\[C@@H]2C[C@@]2(C(=O)NS(=O)(=O)C2CC2)NC(=O)[C@@H]2C[C@@H](NC(=O)c3cc4cc(Cl)ccc4o3)CN2C1=O` [Example 40], the IC50 was below 100 nM.

Take `COc1ccc(C(=O)N[C@@H]2C[C@H]3C(=O)N[C@]4(C(=O)NS(=O)(=O)C5CC5)C[C@H]4/C=C\CCCCC[C@H](NC(=O)OC(C)(C)C)C(=O)N3C2)cc1` [Example 6]: the IC50 is below 100 nM.

For the compound `CN(C)c1ccc(C(=O)N[C@@H]2C[C@H]3C(=O)N[C@]4(C(=O)NS(=O)(=O)C5CC5)C[C@H]4/C=C\CCCCC[C@H](NC(=O)OC(C)(C)C)C(=O)N3C2)cn1` [Example 13], the IC50 is below 100 nM.

Compound `Cn1c(C(=O)N[C@@H]2C[C@H]3C(=O)N[C@]4(C(=O)NS(=O)(=O)C5CC5)C[C@H]4/C=C\CCCCC[C@H](NC(=O)OC(C)(C)C)C(=O)N3C2)cc2ccccc21` [Example 35] registered an IC50 below 100 nM.

Turning to `CC(C)(C)OC(=O)N[C@H]1CCCCC/C=C\[C@@H]2C[C@@]2(C(=O)NS(=O)(=O)C2CC2)NC(=O)[C@@H]2C[C@@H](NC(=O)c3ccc(Cl)cc3)CN2C1=O` [Example 4], the IC50 was below 100 nM.

On to `CC(C)(C)OC(=O)N[C@H]1CCCCC/C=C\[C@@H]2C[C@@]2(C(=O)NS(=O)(=O)C2CC2)NC(=O)[C@@H]2C[C@@H](NC(=O)c3csc(-c4ccc(Cl)cc4)n3)CN2C1=O` [Example 26], for which the IC50 was below 100 nM.

`CC(C)(C)OC(=O)N[C@H]1CCCCC/C=C\[C@@H]2C[C@@]2(C(=O)O)NC(=O)[C@@H]2C[C@@H](NC(=O)c3ccccc3)CN2C1=O` [Example 60] displayed an IC50 below 10000 nM.

Compound `CC(C)(C)OC(=O)N[C@H]1CCCCC/C=C\[C@@H]2C[C@@]2(C(=O)NS(=O)(=O)C2CC2)NC(=O)[C@@H]2C[C@@H](NC(=O)c3ccc(Cl)c(Cl)c3)CN2C1=O` [Example 16] came in with an IC50 below 100 nM.

Turning to `COc1ccc(C(=O)N[C@@H]2C[C@H]3C(=O)N[C@]4(C(=O)NS(=O)(=O)C5CC5)C[C@H]4/C=C\CCCCC[C@H](NC(=O)NC4CCCC4)C(=O)N3C2)cc1C(F)(F)F` [Example 58], the IC50 was below 100 nM.

As for `CC(CC(=O)N[C@H]1CCCCC/C=C\[C@@H]2C[C@@]2(C(=O)NS(=O)(=O)C2CC2)NC(=O)[C@@H]2C[C@@H](NC(=O)c3sc4ccccc4c3Cl)CN2C1=O)C(F)(F)F` (some centres unmarked) [Example 53], the IC50 was below 100 nM.

`COc1cccc(C(=O)N[C@@H]2C[C@H]3C(=O)N[C@]4(C(=O)NS(=O)(=O)C5CC5)C[C@H]4/C=C\CCCCC[C@H](NC(=O)OC(C)(C)C)C(=O)N3C2)c1` [Example 7] had an IC50 below 100 nM.

`COc1ccc(C(=O)N[C@@H]2C[C@H]3C(=O)N[C@]4(C(=O)NS(=O)(=O)C5CC5)C[C@H]4/C=C\CCCCC[C@H](NC(=O)OC4CCCC4)C(=O)N3C2)cc1` [Example 56] displayed an IC50 below 100 nM.

Consider `CC(C)(C)OC(=O)N[C@H]1CCCCC/C=C\[C@@H]2C[C@@]2(C(=O)O)NC(=O)[C@@H]2C[C@@H](NC(=O)c3cc4ccccc4[nH]3)CN2C1=O` [Example 63], for which the IC50 is below 1000 nM.

In turn, `CC(C)(C)OC(=O)N[C@H]1CCCCC/C=C\[C@@H]2C[C@@]2(C(=O)NS(=O)(=O)C2CC2)NC(=O)[C@@H]2C[C@@H](NC(=O)c3cc4ccccc4o3)CN2C1=O` [Example 39] came in with an IC50 below 100 nM.

`CC(C)(C)OC(=O)N[C@H]1CCCCC/C=C\[C@@H]2C[C@@]2(C(=O)NS(=O)(=O)C2CC2)NC(=O)[C@@H]2C[C@@H](NC(=O)c3ccccc3)CN2C1=O` [Example 2] came in with an IC50 below 100 nM.

Take `COc1ccc2oc(C(=O)N[C@@H]3C[C@H]4C(=O)N[C@]5(C(=O)NS(=O)(=O)C6CC6)C[C@H]5/C=C\CCCCC[C@H](NC(=O)OC(C)(C)C)C(=O)N4C3)cc2c1` [Example 41]: the half-maximal inhibitory concentration (IC50) was below 100 nM.

Regarding `CC(C)(C)OC(=O)N[C@H]1CCCCC/C=C\[C@@H]2C[C@@]2(C(=O)NS(=O)(=O)C2CC2)NC(=O)[C@@H]2C[C@@H](NC(=O)c3nc4ccccc4[nH]3)CN2C1=O` [Example 47], the IC50 is below 100 nM.

The compound `CC(C)Nc1nc(C(=O)N[C@@H]2C[C@H]3C(=O)N[C@]4(C(=O)NS(=O)(=O)C5CC5)C[C@H]4/C=C\CCCCC[C@H](NC(=O)OC(C)(C)C)C(=O)N3C2)cs1` [Example 12] displayed an IC50 below 100 nM.

As to `CC(C)(C)OC(=O)N[C@H]1CCCCC/C=C\[C@@H]2C[C@@]2(C(=O)NS(=O)(=O)C2CC2)NC(=O)[C@@H]2C[C@@H](NC(=O)c3ccc(N4CCOCC4)nc3)CN2C1=O` [Example 14], the IC50 was below 100 nM.

Regarding `COc1ccc(C(=O)N[C@@H]2C[C@H]3C(=O)N[C@]4(C(=O)O)C[C@H]4/C=C\CCCCC[C@H](NC(=O)OC(C)(C)C)C(=O)N3C2)cc1` [Example 61], the IC50 is below 10000 nM.

For `CC(C)(C)OC(=O)N[C@H]1CCCCC/C=C\[C@@H]2C[C@@]2(C(=O)NS(=O)(=O)C2CC2)NC(=O)[C@@H]2C[C@@H](NC(=O)c3csc(-c4ccccc4Cl)n3)CN2C1=O` [Example 25], the IC50 was below 100 nM.

As to `CC(C)(C)OC(=O)N[C@H]1CCCCC/C=C\[C@@H]2C[C@@]2(C(=O)NS(=O)(=O)C2CC2)NC(=O)[C@@H]2C[C@@H](NC(=O)c3cnc4ccccc4c3)CN2C1=O` [Example 29], the IC50 was below 100 nM.

On to `CC(C)(C)OC(=O)N[C@H]1CCCCC/C=C\[C@@H]2C[C@@]2(C(=O)NS(=O)(=O)C2CC2)NC(=O)[C@@H]2C[C@@H](NC(=O)c3cc4cc(F)ccc4[nH]3)CN2C1=O` [Example 34], for which the IC50 is below 100 nM.

Take `COc1ccc(C(=O)N[C@@H]2C[C@H]3C(=O)N[C@]4(C(=O)NS(=O)(=O)C5CC5)C[C@H]4/C=C\CCCCC[C@H](NC(=O)OC4CCCC4)C(=O)N3C2)cc1C(F)(F)F` [Example 57]: the IC50 is below 100 nM.

In turn, `O=C(N[C@H]1CCCCC/C=C\[C@@H]2C[C@@]2(C(=O)NS(=O)(=O)C2CC2)NC(=O)[C@@H]2C[C@@H](NC(=O)c3sc4ccccc4c3Cl)CN2C1=O)OCC1CC1` [Example 52] came in with an IC50 below 100 nM.

`CCc1ccc(C(=O)N[C@@H]2C[C@H]3C(=O)N[C@]4(C(=O)NS(=O)(=O)C5CC5)C[C@H]4/C=C\CCCCC[C@H](NC(=O)OC(C)(C)C)C(=O)N3C2)cc1` [Example 3] showed an IC50 below 100 nM.

`CC(C)(C)OC(=O)N[C@H]1CCCCC/C=C\[C@@H]2C[C@@]2(C(=O)NS(=O)(=O)C2CC2)NC(=O)[C@@H]2C[C@@H](NC(=O)c3sc4cccc(Cl)c4c3Cl)CN2C1=O` [Example 45]: the IC50 was below 100 nM.

The compound `CCc1ccc(C(=O)N[C@@H]2C[C@H]3C(=O)N[C@]4(C(=O)O)C[C@H]4/C=C\CCCCC[C@H](NC(=O)OC(C)(C)C)C(=O)N3C2)cc1` [Example 68] had an IC50 below 10000 nM.

The compound `CC(C)(C)OC(=O)N[C@H]1CCCCC/C=C\[C@@H]2C[C@@]2(C(=O)O)NC(=O)[C@@H]2C[C@@H](NC(=O)c3cc4ccccc4o3)CN2C1=O` [Example 66] had an IC50 below 1000 nM.
